Laboratory results reported in patent US10323036B2 (Nimbus Lakshmi, Inc., priority 2016, dated 2019).
Like-named read-outs stand apart in the source and are kept apart here.

Molecular target: human TYK2 (JH2domain-pseudokinase) (Homo sapiens (Human), UniProt P29597)
Experiment: TYK2 JH2 Domain Binding Assay (KINOMEscan)
[1] = Table 4, JH2 binding assay, read-out: JH2 Kd
[2] = Table 5, Tyk2 JH2 Domain Binding Assay, read-out: JH2 Kd

human TYK2 (JH2domain-pseudokinase), sequence (P29597 556-888): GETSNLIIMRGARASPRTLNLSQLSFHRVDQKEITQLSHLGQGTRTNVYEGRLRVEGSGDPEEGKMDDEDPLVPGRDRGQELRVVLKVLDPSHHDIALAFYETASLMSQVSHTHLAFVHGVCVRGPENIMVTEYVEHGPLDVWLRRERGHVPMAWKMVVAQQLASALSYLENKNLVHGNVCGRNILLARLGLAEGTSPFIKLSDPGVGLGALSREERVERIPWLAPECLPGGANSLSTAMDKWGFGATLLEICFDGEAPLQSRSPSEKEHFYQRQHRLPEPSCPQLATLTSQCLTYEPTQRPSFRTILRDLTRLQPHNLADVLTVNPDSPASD

Compound | Kd [1] [nM] | further results
COc1c(Nc2cc(Nc3cc(C)ccn3)nc3[nH]n(C)c(=O)c23)cccc1-c1ncc(C)s1 [Compound I-47, 4-((2-methoxy-3-(5-methylthiazol-2-yl)phenyl)amino)-2-methyl-6-((4-methylpyridin-2-yl)amino)-1,2-dihydro-3H-pyrazolo[3,4-b]pyridin-3-one] | > 10 | –
COc1c(Nc2cc(Nc3cc(C#N)ccn3)nc3[nH]n(C)c(=O)c23)cccc1-c1nnn(C)n1 [Compound I-32, 2-((4-((2-methoxy-3-(2-methyl-2H-tetrazol-5-yl)phenyl)amino)-2-methyl-3-oxo-2,3-dihydro-1H-pyrazolo[3,4-b]pyridin-6-yl)amino)isonicotinonitrile] | > 10 | –
CNc1nc(-c2cccc(-c3nnn(C)n3)c2OC)n2cc(NC(=O)C3CC3)ncc12 [XVI-2] | – | Kd [2]: > 100 nM; Kd (Tyk2 JH2 Domain Binding Assay, read-out: Kd): 10 to 185 nM
COc1c(Nc2cc(NC(=O)C3CC3)ncc2-c2ncc(CO)s2)cccc1-c1ncn(C)n1 [VIII-6, N-(5-(5-(hydroxymethyl)thiazol-2-yl)-4-((2-methoxy-3-(1-methyl-1H-1,2,4-triazol-3-yl)phenyl)amino)pyridin-2-yl)cyclopropanecarboxamide] | – | Kd [2]: 10 to 100 nM
COc1c(Nc2cc(Nc3ccc(N4CCCCC4)cn3)nc3[nH]n(C)c(=O)c23)cccc1-c1nnn(C)n1 [Compound I-11, 4-((2-methoxy-3-(2-methyl-2H-tetrazol-5-yl)phenyl)amino)-2-methyl-6-((5-(piperidin-1-yl)pyridin-2-yl)amino)-1,2-dihydro-3H-pyrazolo[3,4-b]pyridin-3-one] | > 10 | –
COc1c(F)cccc1Nc1cc(Nc2ccn(C)n2)nc2[nH]n(C)c(=O)c12 [Compound I-78, 4-((3-fluoro-2-methoxyphenyl)amino)-2-methyl-6-((1-methyl-1H-pyrazol-3-yl)amino)-1,2-dihydro-3H-pyrazolo[3,4-b]pyridin-3-one] | 1 to 10 | –
COc1c(Nc2cc(Nc3cc(C)nc(C)n3)nc3[nH]n(C)c(=O)c23)cccc1C(N)=O [Compound I-103, 3-((6-((2,6-dimethylpyrimidin-4-yl)amino)-2-methyl-3-oxo-2,3-dihydro-1H-pyrazolo[3,4-b]pyridin-4-yl)amino)-2-methoxybenzamide] | > 10 | –
COc1c(Nc2cc(Nc3ccc(C)nn3)ncc2-c2ncc(Cl)s2)cccc1-c1nnn(C)n1 [VIII-16, 5-(5-chlorothiazol-2-yl)-N4-(2-methoxy-3-(2-methyl-2H-tetrazol-5-yl)phenyl)-N2-(6-methylpyridazin-3-yl)pyridine-2,4-diamine] | – | Kd [2]: 0.1 to 1 nM
COc1c(F)cccc1Nc1cc(Nc2ccc(C#N)cn2)nc2[nH]n(C)c(=O)c12 [Compound I-79, 6-((4-((3-fluoro-2-methoxyphenyl)amino)-2-methyl-3-oxo-2,3-dihydro-1H-pyrazolo[3,4-b]pyridin-6-yl)amino)nicotinonitrile] | 1 to 10 | –
CN(c1cc(C(F)(F)F)ccc1Nc1cc(NC(=O)C2CC2)nc2[nH]n(C)c(=O)c12)S(C)(=O)=O [Compound I-235, N-(2-methyl-4-((2-(N-methylmethylsulfonamido)-4-(trifluoromethyl)phenyl)amino)-3-oxo-2,3-dihydro-1H-pyrazolo[3,4-b]pyridin-6-yl)cyclopropanecarboxamide] | 0.1 to 0.5 | –
CCc1nn(-c2cccc(-c3nnn(C)n3)c2OC)c2cc(NC(=O)C3CC3)ncc12 [XVI-4, N-(3-ethyl-1-(2-methoxy-3-(2-methyl-2H-tetrazol-5-yl)phenyl)-1H-pyrazolo[4,3-c]pyridin-6-yl)cyclopropanecarboxamide] | – | Kd [2]: 0.1 to 1 nM
COc1c(Nc2cc(Nc3cc(C)c(F)cn3)nc3[nH]n(C)c(=O)c23)cccc1-c1ncn(C)n1 [Compound I-21, 6-((5-fluoro-4-methylpyridin-2-yl)amino)-4-((2-methoxy-3-(1-methyl-1H-1,2,4-triazol-3-yl)phenyl)amino)-2-methyl-1,2-dihydro-3H-pyrazolo[3,4-b]pyridin-3-one] | 0.1 to 0.5 | –
COc1c(Nc2cc(Nc3cccc(C4CC4)n3)nc3[nH]n(C)c(=O)c23)cccc1-c1nnn(C)n1 [Compound I-65, 6-((6-cyclopropylpyridin-2-yl)amino)-4-((2-methoxy-3-(2-methyl-2H-tetrazol-5-yl)phenyl)amino)-2-methyl-1,2-dihydro-3H-pyrazolo[3,4-b]pyridin-3-one] | 0.1 to 0.5 | –
Cn1[nH]c2nc(Nc3ccc(C#N)cn3)cc(Nc3ccc(C4CC4)cc3S(C)(=O)=O)c2c1=O [Compound I-213, 6-((4-((4-cyclopropyl-2-(methylsulfonyl)phenyl)amino)-2-methyl-3-oxo-2,3-dihydro-1H-pyrazolo[3,4-b]pyridin-6-yl)amino)nicotinonitrile] | 0.1 to 0.5 | –
COc1c(Nc2cc(NC(=O)C3CC3)nc3[nH]n(C)c(=O)c23)cccc1-c1n[nH]c(C)n1 [Compound I-62] | < 0.1 | –
Cn1[nH]c2nc(NC(=O)C3CC3)cc(Nc3ccc(C4CC4)cc3S(C)(=O)=O)c2c1=O [Compound I-201, N-(4-((4-cyclopropyl-2-(methylsulfonyl)phenyl)amino)-2-methyl-3-oxo-2,3-dihydro-1H-pyrazolo[3,4-b]pyridin-6-yl)cyclopropanecarboxamide] | < 0.1 | –
COc1cc(C2CC2)ccc1Nc1cc(NC(=O)C2CC2)nc2[nH]n(C)c(=O)c12 [Compound I-50, N-(4-((4-cyclopropyl-2-methoxyphenyl)amino)-2-methyl-3-oxo-2,3-dihydro-1H-pyrazolo[3,4-b]pyridin-6-yl)cyclopropanecarboxamide] | 1 to 10 | –
COc1c(F)cccc1Nc1cc(Nc2ccc(C3CC3)cn2)nc2[nH]n(C)c(=O)c12 [Compound I-91, 6-((5-cyclopropylpyridin-2-yl)amino)-4-((3-fluoro-2-methoxyphenyl)amino)-2-methyl-1,2-dihydro-3H-pyrazolo[3,4-b]pyridin-3-one] | 1 to 10 | –
COc1c(Nc2cc(Nc3ccc(C)nn3)ncc2-c2nnc(CO)o2)cccc1-c1ncn(C)n1 [VIII-12, (5-(4-((2-methoxy-3-(1-methyl-1H-1,2,4-triazol-3-yl)phenyl)amino)-6-((6-methylpyridazin-3-yl)amino)pyridin-3-yl)-1,3,4-oxadiazol-2-yl)methanol] | – | Kd [2]: 0.1 to 1 nM
COc1c(Nc2cc(Nc3cccc(C#N)n3)nc3[nH]n(C)c(=O)c23)cccc1-c1nnn(C)n1 [Compound I-28, 6-((4-((2-methoxy-3-(2-methyl-2H-tetrazol-5-yl)phenyl)amino)-2-methyl-3-oxo-2,3-dihydro-1H-pyrazolo[3,4-b]pyridin-6-yl)amino)picolinonitrile] | 1 to 10 | –
COc1c(Nc2cc(NC(=O)C3CC3)ncc2-n2cc(CO)cn2)cccc1-c1ncn(C)n1 [VIII-10, N-(5-(4-(hydroxymethyl)-1H-pyrazol-1-yl)-4-((2-methoxy-3-(1-methyl-1H-1,2,4-triazol-3-yl)phenyl)amino)pyridin-2-yl)cyclopropanecarboxamide] | – | Kd [2]: > 100 nM
CCn1cc(-c2cccc(-c3nnn(C)n3)c2OC)c2cc(NC(=O)C3CC3)ncc21 [XVI-6, N-(1-ethyl-3-(2-methoxy-3-(2-methyl-2H-tetrazol-5-yl)phenyl)-1H-pyrrolo[2,3-c]pyridin-5-yl)cyclopropanecarboxamide] | – | Kd [2]: 10 to 100 nM
COc1c(Nc2cc(NC(=O)C3CC3)nc3[nH]n(C)c(=O)c23)cccc1-c1ncnn1C [Compound I-54, N-(4-((2-methoxy-3-(1-methyl-1H-1,2,4-triazol-5-yl)phenyl)amino)-2-methyl-3-oxo-2,3-dihydro-1H-pyrazolo[3,4-b]pyridin-6-yl)cyclopropanecarboxamide] | 0.5 to 1 | –
COc1c(F)cccc1Nc1cc(Nc2ccccn2)nc2[nH]n(C)c(=O)c12 [Compound I-80, 4-((3-fluoro-2-methoxyphenyl)amino)-2-methyl-6-(pyridin-2-ylamino)-1,2-dihydro-3H-pyrazolo[3,4-b]pyridin-3-one] | 1 to 10 | –
COc1c(C#N)cccc1Nc1cc(Nc2cc(C)nc(C)n2)nc2[nH]n(C)c(=O)c12 [Compound I-39] | > 10 | –

Now from value to molecule, other results behind:

Kd [1] [nM] | Compound | further results
0.5 to 1 | Cn1[nH]c2nc(Nc3cccc(C#N)n3)cc(Nc3ccc(Cl)cc3S(C)(=O)=O)c2c1=O [Compound I-203, 6-((4-((4-chloro-2-(methylsulfonyl)phenyl)amino)-2-methyl-3-oxo-2,3-dihydro-1H-pyrazolo[3,4-b]pyridin-6-yl)amino)picolinonitrile] | –
1 to 10 | COc1c(Cl)cccc1Nc1cc(Nc2ccn(C)n2)nc2[nH]n(C)c(=O)c12 [Compound I-136, 4-((3-chloro-2-methoxyphenyl)amino)-2-methyl-6-((1-methyl-1H-pyrazol 3-yl)amino)-1,2-dihydro-3H-pyrazolo[3,4-b]pyridin-3-one] | –
> 10 | CCc1ncc(Nc2cc(Nc3cccc(Cl)c3OC)c3c(=O)n(C)[nH]c3n2)nc1C#N [Compound I-147, 6-((4-((3-chloro-2-methoxyphenyl)amino)-2-methyl-3-oxo-2,3-dihydro-1H-pyrazolo[3,4-b]pyridin-6-yl)amino)-3-ethylpyrazine-2-carbonitrile] | –
1 to 10 | COc1c(Cl)cccc1Nc1cc(Nc2cc(C)c(F)cn2)nc2[nH]n(C)c(=O)c12 [Compound I-95, 4-((3-chloro-2-methoxyphenyl)amino)-6-((5-fluoro-4-methylpyridin-2-yl)amino)-2-methyl-1,2-dihydro-3H-pyrazolo[3,4-b]pyridin-3-one] | –
0.5 to 1 | Cn1[nH]c2nc(Nc3cccc(C(F)(F)F)n3)cc(Nc3ccc(Cl)cc3S(C)(=O)=O)c2c1=O [Compound I-209, 4-((4-chloro-2-(methylsulfonyl)phenyl)amino)-2-methyl-6-((6-(trifluoromethyl)-pyridin-2-yl)amino)-1,2-dihydro-3H-pyrazolo[3,4-b]pyridin-3-one] | –
0.5 to 1 | Cn1ccc(Nc2cc(Nc3ccccc3S(C)(=O)=O)c3c(=O)n(C)[nH]c3n2)n1 [Compound I-137, 2-methyl-6-((1-methyl-1H-pyrazol-3-yl)amino)-4-((2-(methylsulfonyl)phenyl)amino)-1,2-dihydro-3H-pyrazolo[3,4-b]pyridin-3-one] | –
0.1 to 0.5 | Cc1ccc(Nc2cc(Nc3ccc(F)cc3S(C)(=O)=O)c3c(=O)n(C)[nH]c3n2)nn1 [Compound I-198, 4-((4-fluoro-2-(methylsulfonyl)phenyl)amino)-2-methyl-6-((6-methylpyridazin-3-yl)amino)-1,2-dihydro-3H-pyrazolo[3,4-b]pyridin-3-one] | –
